We go through two compounds from patent US8871232B2, “Self-indicating wipe for removing bacteria from a surface” (Kimberly-Clark Worldwide, Inc., priority 2007, dated 2014).

Assay [1] deals with live culture yogurt. The assay can be described thus: Colour change of Reichardt's dye lines on paper towel after wiping a contaminated cutting board. As to conditions: VIVA paper towels sprayed with saturated Reichardt's dye in isopropanol with potassium hydroxide; cutting board with light smears of live culture yogurt. An excerpt:
Sheets of VIVA® paper towels (Kimberly-Clark Corporation, Neenah Wis.) were placed on a flat surface, three sheets wide. A stainless steel grilling grate (Weber Company, purchased from Home Depot store) was placed onto top of the sheets. Next a 100-milliliter saturated solution of Reichardt's dye in isopropanol with 10 milliliters of potassium hydroxide was placed into a container and then sprayed (Chromist sprayer) over the grilling grate with the VIVA® towels underneath. The grilling grate was removed and the towels were hung in a fumehood and allowed to dry. The paper towels now had multiple parallel lines of the Reichardt's dye across the paper towel. The lines were 4 centimeters apart. Onto a cutting board surface (plastic cutting boards, Kroger grocery store) was applied light smears (3 cm×15 cm) of live culture yogurt. Next, the treated VIVA® paper towels were used to wipe the surface of the cutting board.

Assay [2] concerns S. aureus. The assay can be described thus: Wipe test: removal of S. aureus from ceramic tile and transfer to clean tile, visualised with indicator spray. The settings on record: WTCL wipe treated with aluminum chlorohydrate (1% W/W, add-on approx. 6 to 7%) and 1% Reichardt's dye dots; 100 microliter drops of 10^7 CFU/ml S. aureus on ceramic tile; control wipe's "X" readily visible. Here is the method:
A wire-textured coform laminate (WTCL) was treated with aluminum chlorohydrate (1% W/W) using a dip and nip procedure, with a resulting add-on of approximately 6 to 7%. The treated WTCL was then treated with a 1% solution of Reichardt's dye indicator (prepared in acetonitrile) in a small dot pattern using a syringe. Control WTCL wipe material without aluminum chlorohydrate was also used for this experiment as a control. Two 100 microliter drops of 10^7 CFU/ml S. aureus were placed onto a ceramic tile. Treated wipe and control material were both used to wipe the drop off of the tile. These wipes were then used to make an “X” onto clean tiles. These tiles were then sprayed with bacterial indicator solution (80 mg/10 mL acetonitrile) using a Chromist® spray can. The treated WTCL was then also sprayed with the indicator. Finally, the treated wipe (now clearly visible) containing the bacteria was once again used to wipe a clean area of tile. This area was then sprayed with the indicator. The “X” for the control was readily visible.

Turning to `[O-]c1c(-c2ccccc2)cc(-[n+]2c(-c3ccccc3)cc(-c3ccccc3)cc2-c2ccccc2)cc1-c1ccccc1` [Reichardt's dye, 4-(2,4,6-triphenylpyridinium-1-yl)-2,6-diphenylphenolate], the “color of the Reichardt's dye lines on contact with contaminated surface” value in assay [1] is on record as “rapidly discharged”.
As for aluminum chlorohydrate, the “transfer of bacteria from used wipe to clean tile” value in assay [2] was “did not transfer bacteria to the clean tile”.
